Test results from PubChem BioAssay (NCI).
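96-well plates; 48 h exposure; 5 concentrations. Endpoints by linear interpolation between flanking doses. Not reached: highest tested concentration assigned. GI50 = concentration required for 50% inhibition of growth. TGI: total growth inhibition.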

Experiments:
Test in all cases: NCI anticancer screen, dose series, 48 h
[1] = tested on: NCI-H23 lung
[2] = tested on: NCI-H522 lung
[3] = tested on: MALME-3M melanoma
[4] = tested on: UACC-257 melanoma
[5] = tested on: EKVX NSCLC
[6] = tested on: OVCAR-3 ovarian
[7] = tested on: SF-268 CNS
[8] = tested on: IGROV1 ovarian
[9] = tested on: HS 578T breast
[10] = tested on: T-47D breast

Structure (SMILES)	TGI [1]	TGI [2]	TGI [3]	TGI [4]	TGI [5]	TGI [6]	TGI [7]	TGI [8]	TGI [9]	TGI [10]	GI50 [2]	GI50 [5]	GI50 [6]	GI50 [10]	GI50 [8]
O=C(Nc1ccc(Cl)cc1)/C(Cc1cccc[n+]1[O-])=N\Nc1ccc([N+](=O)[O-])cc1[N+](=O)[O-]	> 100 µM	> 100 µM	> 100 µM	> 100 µM	> 100 µM	> 100 µM	> 100 µM	> 100 µM	–	–	–	–	–	–	–
CC[C@@H](C(=O)[C@@H](C)[C@@H](O)[C@H](C)CCc1ccc(C)c(O)c1C(=O)O)[C@H]1O[C@](CC)([C@H]2CC[C@](O)(CC)[C@H](C)O2)C[C@@H]1C	6.87 µM	3.11 µM	2.42 µM	11.3 µM	9 µM	10.9 µM	9.09 µM	13.3 µM	–	–	–	–	–	–	–
O=C1NC(=O)C(C(c2ccc(Cl)cc2)C2C(=O)NC(=O)NC2=O)C(=O)N1	> 100 µM	> 100 µM	> 100 µM	> 100 µM	> 100 µM	> 100 µM	–	> 100 µM	> 100 µM	> 100 µM	–	–	–	–	–
CCOC(=O)c1cc2c([nH]1)C(=O)CC1=C2CCN1Cc1ccccc1	29.6 µM	38.5 µM	13.2 µM	36.1 µM	37.4 µM	–	43.6 µM	36 µM	57.4 µM	6.77 µM	–	–	–	–	–
CC(=O)OC1CC2(c3ccccc3)C(=O)c3ccccc3N2O1 (stereo not drawn)	> 100 µM	> 100 µM	> 100 µM	> 100 µM	> 100 µM	–	> 100 µM	> 100 µM	–	–	–	–	–	–	–
CN1CCN(C(=S)N(C(=O)c2ccco2)c2ccccc2)CC1	> 100 µM	> 100 µM	> 100 µM	> 100 µM	–	> 100 µM	> 100 µM	> 100 µM	> 100 µM	> 100 µM	–	–	–	–	–
O=C(N/N=C1/C(=O)c2c3ccccc3cc3cccc1c23)c1cccc(Cl)c1	> 100 µM	–	–	> 100 µM	–	> 100 µM	–	> 100 µM	67.2 µM	–	–	–	–	–	–
CC(C)CC(=O)NC(NC(C)C)(C(F)(F)F)C(F)(F)F	–	> 100 µM	> 100 µM	> 100 µM	> 100 µM	–	> 100 µM	> 100 µM	> 100 µM	> 100 µM	–	–	–	–	–
Nc1nc(NNc2ccc(Cl)c(Cl)c2)cc(=O)[nH]1	> 100 µM	–	> 100 µM	> 100 µM	> 100 µM	59.5 µM	> 100 µM	> 100 µM	> 100 µM	–	–	–	–	–	–
O=P1(Oc2ccc(Cl)cc2)OCCS1 (stereo not drawn)	> 100 µM	> 100 µM	> 100 µM	> 100 µM	> 100 µM	–	> 100 µM	> 100 µM	> 100 µM	> 100 µM	–	–	–	–	–
O=C1c2nn(-c3ccccc3)nc2C(c2ccccc2)N1c1ccccc1 (stereo not drawn)	> 100 µM	> 100 µM	> 100 µM	> 100 µM	> 100 µM	> 100 µM	> 100 µM	> 100 µM	–	–	–	–	–	–	–
Cc1cc2c(cc1C)[n+](=O)c(N1CCN(c3ccc([N+](=O)[O-])cc3)CC1)c(C#N)n2[O-]	> 100 µM	88.3 µM	> 100 µM	> 100 µM	> 100 µM	–	> 100 µM	> 100 µM	> 100 µM	63.7 µM	–	–	–	–	–
CN(C)CC(CO)(CN(C)C)CN(C)C	> 100 µM	> 100 µM	> 100 µM	> 100 µM	> 100 µM	> 100 µM	> 100 µM	> 100 µM	–	–	–	–	–	–	–
O=c1cc(CC(O)(C(F)(F)Cl)C(F)(F)Cl)[nH]n1-c1ccccc1	> 100 µM	–	> 100 µM	> 100 µM	> 100 µM	–	> 100 µM	> 100 µM	> 100 µM	> 100 µM	–	–	–	–	–
CN1CCN(Cc2ccc(NC(=O)c3ccc(C#N)c(C#Cc4cnc(N)c5ncccc45)c3)cc2C(F)(F)F)CC1	–	28.6 µM	–	–	89.7 µM	10.4 µM	–	7.01 µM	–	> 100 µM	2.94 µM	19.3 µM	3.34 µM	28.6 µM	1.76 µM
O=C1C2CCC(C2)C12CC1(c3ccccc3)C(=O)c3ccccc3N1O2 (stereo not drawn)	> 100 µM	> 100 µM	> 100 µM	> 100 µM	> 100 µM	–	> 100 µM	> 100 µM	–	–	–	–	–	–	–
CC12CC[C@H](O)C(C)(C)[C@H]1CC[C@](C)(O)C2COc1ccc2ccc(=O)oc2c1 (stereo partly drawn)	> 100 µM	> 100 µM	> 100 µM	> 100 µM	> 100 µM	> 100 µM	> 100 µM	> 100 µM	–	–	–	–	–	–	–
COc1ccc(C2=NN(c3ccccc3)C(c3cc4cc(Br)ccc4nc3Cl)C2)cc1 (stereo not drawn)	> 25 µM	> 25 µM	> 25 µM	–	> 25 µM	> 25 µM	> 25 µM	> 25 µM	> 25 µM	> 25 µM	–	–	–	–	–
COP1(=O)NCc2ncccc2O1 (stereo not drawn)	> 100 µM	–	–	> 100 µM	> 100 µM	> 100 µM	–	> 100 µM	–	> 100 µM	–	–	–	–	–
COc1ccc([N-]/C(=N\n2c(=O)c(C)nn(C)c2=S)N(c2ccc(OC)cc2)c2nn3c(=O)c(C)n[n+](C)c3s2)cc1	> 100 µM	> 100 µM	–	> 100 µM	> 100 µM	–	> 100 µM	> 100 µM	–	–	–	–	–	–	–
O=c1c2ccccc2nc(-c2ccccc2)n1NC(=S)Nc1ccc(Cl)cc1[N+](=O)[O-]	> 100 µM	> 100 µM	> 100 µM	> 100 µM	–	–	> 100 µM	> 100 µM	–	–	–	–	–	–	–
CCN1CC2=C(NC(=S)NC2c2cc(OC)c(OC)c(OC)c2)/C(=C/c2cc(OC)c(OC)c(OC)c2)C1 (stereo not drawn)	> 100 µM	55.9 µM	31.5 µM	> 100 µM	> 100 µM	> 100 µM	37.7 µM	> 100 µM	–	–	–	–	–	–	–
CC(C)c1cccc(C(C)C)c1NC(=O)C(=O)C(C(=O)c1ccc2ccccc2c1)C1OC(=O)c2ccccc21 (stereo not drawn)	> 100 µM	> 100 µM	> 100 µM	> 100 µM	> 100 µM	> 100 µM	> 100 µM	> 100 µM	–	–	–	–	–	–	–
COc1ccc(C2ON(c3ccccn3)CC=C2C)cc1 (stereo not drawn)	> 100 µM	> 100 µM	> 100 µM	> 100 µM	> 100 µM	> 100 µM	> 100 µM	> 100 µM	–	–	–	–	–	–	–
C=C(C)[C@@]1(O)CCC[C@H]1NC(=O)OC(C)(C)C	> 100 µM	> 100 µM	> 100 µM	> 100 µM	> 100 µM	> 100 µM	> 100 µM	> 100 µM	–	> 100 µM	–	–	–	–	–
